Each structure is given as a SMILES string. Where only a bound is given, the exact number is not on record here.

One experiment concerns H4-III-E cells. Description: TAT (tyrosine aminotransferase) assay. It counts as cell-based. Conditions: for Agonistic activity of 10 μM test compound / activation at 10 µM: 10 μM test compound alone, relative to maximum Dex-induced TAT activity (100%); for Antagonistic activity of 10 μM test compound: 10 μM test compound together with 0.005 μM dexamethasone, inhibitory ratio against TAT activity increase by Dex; for activation at 10 µM: read-out: Agonistic activity of 10 μM test compound. As for the experimental part:
H4-III-E cells, which had been continuously cultured in α-MEM medium A (supplemented with 10% inactivated FBS, 50 μM 2-mercapto-ethanol), were suspended in α-MEM medium A or α-MEM medium B (supplemented with 10% inactivated FBS, 50 μM 2-mercapto-ethanol, but without phenol red), and the cell suspension was seeded to a 96-well plate in an amount of 2×10^4 cells/100 μl/well, and the cells were cultured overnight. The supernatant in the medium was removed, and a test compound (100 μl, diluted with α-MEM medium A or α-MEM medium B) was added, and the cells were further cultured overnight. In order to measure the agonistic activity, a test compound was added alone, while in order to measure the antagonistic activity, a test compound was added simultaneously together with 0.005 μM dexamethasone and evaluated the extent of the inhibitory effect of said test compound against the TAT activity-inducing activity by dexamethasone.
The culture supernatant in the plate was removed by suction, and a cell lysate (20 μL; 1% NP-40, 0.2% Triton X-100, 0.25% DOC, 0.1% SDS, 1 mM EGTA, 150 mM NaCl, Tris (pH7.4), Protease inhibitor cocktail [2.5 mg/ml aprotinin, 2.5 mg/ml leupeptin, 2.5 mg/ml soybean trypsin inhibitor]) was added, and further thereto was added a TAT reaction reagent (150 μL; 10 N KOH, 0.125 M KH2PO4, 0.5 M α-ketoglutarate, 5 mM Pyridoxal-5′ phosphate, L-tyrosine), and the mixture was reacted at 37° C. for 15 minutes. Further, a 10N KOH (20 μL) was added thereto, and the mixture was reacted at 37° C. for 30 minutes, and the absorbance at 331 nm was measured by a microplate reader (SPECTRA MAX 250).
From the mean absorbance in the wells to which a test compound was added, the mean absorbance in the wells to which a compound and a TAT reaction solution were not added was subtracted.
Agonistic activity (%)=100×[(absorbance of the drug-treated group)−(absorbance of the group without TAT reaction reagent)]/[(absorbance of Dex-treated group)−(absorbance of the group without TAT reaction reagent)]
On the other hand, the antagonistic activity was calculated as follows.
Antagonistic activity (%)=Inhibitory ratio (%) against TAT activity increase by Dex=100−100×[(absorbance of the drug-treated group)−(absorbance of the group without a drug)]/[(absorbance of Dex-treated group)−(absorbance of the group without a drug)]
With regard to the agonistic activity and the antagonistic activity, the results of 10% or more were expressed as O, while the results of less than 10% were expressed as X.

For another experiment, the target named is T1, human GRα protein (Homo sapiens, UniProt P04150).
T1 construct: made in house; host or cells: insect cells infected with baculovirus; cytoplasm fraction used
T1 sequence (P04150 1-777): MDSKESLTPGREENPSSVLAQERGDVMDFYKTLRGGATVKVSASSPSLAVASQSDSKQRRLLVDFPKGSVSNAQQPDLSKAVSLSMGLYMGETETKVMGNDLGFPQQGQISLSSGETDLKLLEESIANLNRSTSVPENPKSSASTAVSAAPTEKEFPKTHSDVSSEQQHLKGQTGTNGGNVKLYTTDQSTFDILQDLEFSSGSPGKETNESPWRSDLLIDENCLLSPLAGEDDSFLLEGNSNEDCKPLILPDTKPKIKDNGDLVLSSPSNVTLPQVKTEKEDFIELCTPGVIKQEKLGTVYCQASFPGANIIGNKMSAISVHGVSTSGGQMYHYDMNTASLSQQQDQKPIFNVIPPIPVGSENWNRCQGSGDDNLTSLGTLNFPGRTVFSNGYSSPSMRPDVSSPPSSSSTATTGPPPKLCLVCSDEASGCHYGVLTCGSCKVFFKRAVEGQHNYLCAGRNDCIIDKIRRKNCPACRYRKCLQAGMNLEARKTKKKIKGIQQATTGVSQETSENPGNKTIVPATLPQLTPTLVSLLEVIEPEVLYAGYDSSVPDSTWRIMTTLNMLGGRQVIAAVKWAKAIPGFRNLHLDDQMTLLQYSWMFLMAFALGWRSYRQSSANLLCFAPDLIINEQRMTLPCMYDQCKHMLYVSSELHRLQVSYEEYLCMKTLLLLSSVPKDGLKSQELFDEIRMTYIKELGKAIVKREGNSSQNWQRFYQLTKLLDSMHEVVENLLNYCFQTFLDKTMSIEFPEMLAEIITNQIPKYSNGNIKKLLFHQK
Kind of experiment: Binding inhibitory assay (displacement of 3H-dexamethasone from the cytoplasm fraction of baculovirus-infected insect cells). Conditions: 100 nM test compound; 3H-Dex; NSB with 10 μM dexamethasone; read-out: Binding Inhibitory ratio (%) of 100 nM of test compound. As for the experimental part: Insect cells, which had been infected with baculovirus for expressing human GRα protein, were suspended in an approximately equal volume of a binding buffer (10 mM Tris-Cl, 1.5 mM EDTA, 10% glycerol, 5 mM DTT, 20 mM sodium molybdate, pH 7.6). The mixture was rapidly frozen with liquid nitrogen, and then melted at room temperature. This cycle was repeated totally twice in order to break the cell membrane. The mixture was ultracentrifuged under 100,000 g at 4° C. for one hour to give the supernatant, which was the cytoplasm fraction containing human GRα protein.
A polypropylene 96-well plate (manufactured by Costar Corporation, etc.) was placed on ice, and DMSO or a test compound (each 1 μl) was put into each well. A 10 nM ^3H-Dex solution (50 μl; tritiated dexamethasone; manufactured by Amersham) in the binding buffer, and a GR protein solution, i.e., a solution by diluting the above cytoplasm fraction with the binding buffer (50 μl) were added to each well, and the plate was lightly shaken with a plate mixer, and then left to stand at 4° C. for 16 to 20 hours (the final concentration of DMSO: 1%).
A 5% solution of dextran-coated active carbon (manufactured by Sigma) suspended in the binding buffer (50 μl) was put into each well, and the plate was lightly shaken with a plate mixer for 30 seconds. Then, the plate was centrifuged at 2500 rpm at 4° C. for 5 minutes, and the ^3H count in the supernatant (50 μl) was measured by a TopCount (manufactured by Perkin-Elmer Corporation). Each test compound was tested twice.
The binding activity was calculated as follows. The mean ^3H count in the presence of dexamethason (Dex) 10 μM was considered as NSB (non-specific binding), and the binding inhibitory ratio in each well was calculated by the following equation.
Binding Inhibitory Ratio (%)=100×{1−(cpm value of each well−NSB)/(mean cpm value of DMSO-well−NSB)}
(cpm means count per minute)
The mean binding inhibitory ratio of each well was calculated by the above equation to give a binding inhibitory ratio of each test compound.
In general terms: Loss of bound radioactivity is the signal in a displacement assay; it reports binding, not function.

With `COC(CN1CCC(C(=O)c2ccccc2)CC1)(c1cn(Cc2ccccc2)c2cc([N+](=O)[O-])ccc12)C(F)(F)F` (stereo not drawn) [Example 153, {1-[2-(1-Benzyl-6-nitro-1H-indol-3-yl)-3,3,3-trifluoro-2-methoxypropyl]piperidin-4-yl}(phenyl)methanone], in the experiment with H4-III-E cells, the “Agonistic activity of 10 μM test compound” value is given as “◯” and the “Antagonistic activity of 10 μM test compound” value (“Antagonistic activity” below) was “◯”. Moreover, the inhibition at 0.1 µM at human GRα protein stood at 91%.
As for `O=[N+]([O-])c1ccc2c(C(O)(Cn3ccnc3)C(F)(F)F)cn(Cc3ccccc3)c2c1` (stereo not drawn) [Example 158, 2-(1-Benzyl-6-nitro-1H-indol-3-yl)-1,1,1-trifluoro-3-(1H-imidazol-1-yl)propan-2-ol], in the experiment with H4-III-E cells, the activation at 10 µM is < 10% and the “Antagonistic activity” value is “◯”. The inhibition at 0.1 µM on human GRα protein amounted to 96%.
Regarding `O=[N+]([O-])c1ccc2c(C(O)(CN3CCCC(O)C3)C(F)(F)F)cn(Cc3ccccc3)c2c1` (stereo not drawn) [Example 165, 1-[2-(1-Benzyl-6-nitro-1H-indol-3-yl)-3,3,3-trifluoro-2-hydroxypropyl]piperidin-3-ol], in the experiment with H4-III-E cells, the “Agonistic activity of 10 μM test compound” value is on record as “◯” and the “Antagonistic activity” value is given as “◯”. The inhibition at 0.1 µM on human GRα protein worked out at 95%.
With `CCOC(=O)CCCNCC(O)(c1cn(Cc2ccccc2)c2cc([N+](=O)[O-])ccc12)C(F)(F)F` (stereo not drawn) [Example 169, Ethyl 4-{[2-(1-benzyl-6-nitro-1H-indol-3-yl)-3,3,3-trifluoro-2-hydroxypropyl]-amino}butanoate], in the experiment with H4-III-E cells, the “Agonistic activity of 10 μM test compound” value is “◯” and the “Antagonistic activity” value is “◯”. Further, the inhibition at 0.1 µM on human GRα protein is 99%.
Consider `CCOC(=O)CCCCNCC(O)(c1cn(Cc2ccccc2)c2cc([N+](=O)[O-])ccc12)C(F)(F)F` (stereo not drawn) [Example 173, Ethyl 5-{[2-(1-benzyl-6-nitro-1H-indol-3-yl)-3,3,3-trifluoro-2-hydroxypropyl]-amino}pentanoate], for which, in the experiment with H4-III-E cells, the activation at 10 µM was < 10% and the “Antagonistic activity” value was “◯”. In addition, the inhibition at 0.1 µM on human GRα protein was determined as 88%.
As for `O=C(O)c1ccc(OC2CCN(CC(O)(c3cn(Cc4ccccc4)c4cc([N+](=O)[O-])ccc34)C(F)(F)F)CC2)cc1` (stereo not drawn) [Example 178, 4-({1-[2-(1-Benzyl-6-nitro-1H-indol-3-yl)-3,3,3-trifluoro-2-hydroxypropyl]-piperidin-4-yl}oxy)benzoic acid], in the experiment with H4-III-E cells, the “Agonistic activity of 10 μM test compound” value is given as “◯” and the “Antagonistic activity” value is on record as “◯”. On human GRα protein, the inhibition at 0.1 µM amounted to 95%.
On to `CCOC(=O)Cc1ccc(OC2CCN(CC(O)(c3cn(Cc4ccccc4)c4cc([N+](=O)[O-])ccc34)C(F)(F)F)CC2)cc1` (stereo not drawn) [Example 179], for which, in the experiment with H4-III-E cells, the “Agonistic activity of 10 μM test compound” value was “◯” and the “Antagonistic activity” value is reported as “◯”. The inhibition at 0.1 µM on human GRα protein came out at 81%.
Turning to `O=C(O)Cc1ccc(OC2CCN(CC(O)(c3cn(Cc4ccccc4)c4cc([N+](=O)[O-])ccc34)C(F)(F)F)CC2)cc1` (stereo not drawn) [Example 180, [4-({1-[2-(1-Benzyl-6-nitro-1H-indol-3-yl)-3,3,3-trifluoro-2-hydroxypropyl]-piperidin-4-yl}oxy)phenyl]acetic acid], in the experiment with H4-III-E cells, the “Agonistic activity of 10 μM test compound” value was “◯” and the “Antagonistic activity” value was “◯”. Also, the inhibition at 0.1 µM at human GRα protein amounted to 98%.
As to `CCOC(=O)CCc1ccc(OC2CCN(CC(O)(c3cn(Cc4ccccc4)c4cc([N+](=O)[O-])ccc34)C(F)(F)F)CC2)cc1` (stereo not drawn) [Example 181, Ethyl 3-[4-({1-[2-(1-benzyl-6-nitro-1H-indol-3-yl)-3,3,3-trifluoro-2-hydroxypropyl]piperidin-4-yl}oxy)phenyl]propanoate], in the experiment with H4-III-E cells, the “Agonistic activity of 10 μM test compound” value is given as “◯” and the “Antagonistic activity” value was “◯”. The inhibition at 0.1 µM at human GRα protein was 87%.
In the case of `O=C(O)CCc1ccc(OC2CCN(CC(O)(c3cn(Cc4ccccc4)c4cc([N+](=O)[O-])ccc34)C(F)(F)F)CC2)cc1` (stereo not drawn) [Example 182, 3-[4-({1-[2-(1-Benzyl-6-nitro-1H-indol-3-yl)-3,3,3-trifluoro-2-hydroxypropyl]-piperidin-4-yl}oxy)phenyl]propanoic acid], in the experiment with H4-III-E cells, the “Agonistic activity of 10 μM test compound” value is listed as “◯” and the “Antagonistic activity” value is “◯”. Moreover, the inhibition at 0.1 µM on human GRα protein stood at 99%.
Take `CS(=O)(=O)C1CCN(CC(O)(c2cn(Cc3ccccc3)c3cc([N+](=O)[O-])ccc23)C(F)(F)F)CC1` (stereo not drawn) [Example 183, 2-(1-Benzyl-6-nitro-1H-indol-3-yl)-1,1,1-trifluoro-3-[4-(methylsulfonyl)piperidin-1-yl]propan-2-ol]: in the experiment on H4-III-E cells, the “Agonistic activity of 10 μM test compound” value is listed as “◯” and the “Antagonistic activity” value is “◯”. In addition, on human GRα protein, the inhibition at 0.1 µM amounted to 88%.
Turning to `O=[N+]([O-])c1ccc2c(C(O)(CN3CCC(S(=O)(=O)c4ccccc4)CC3)C(F)(F)F)cn(Cc3ccccc3)c2c1` (stereo not drawn) [Example 184, 2-(1-Benzyl-6-nitro-1H-indol-3-yl)-1,1,1-trifluoro-3-[4-(phenylsulfonyl)piperidin-1-yl]propan-2-ol], in the experiment with H4-III-E cells, the “Agonistic activity of 10 μM test compound” value is listed as “◯” and the “Antagonistic activity” value is on record as “X (the results of less than 10% were expressed as X)”. The inhibition at 0.1 µM at human GRα protein came out at 97%.
As for `O=[N+]([O-])c1ccc2c(C(O)(CN3CCC(Nc4ccccc4)CC3)C(F)(F)F)cn(Cc3ccccc3)c2c1` (stereo not drawn) [Example 185, 3-(4-Anilinopiperidin-1-yl)-2-(1-benzyl-6-nitro-1H-indol-3-yl)-1,1,1-trifluoropropan-2-ol], in the experiment on H4-III-E cells, the activation at 10 µM is < 10% and the “Antagonistic activity” value is recorded as “◯”. Besides, the inhibition at 0.1 µM on human GRα protein was 82%.
